This assay has as its system B16F10 cells. The assay can be described thus: B16F10 re-challenge on the opposite flank. The assay is classed as in vivo, C57BL/6 mice. Particulars: 20 μg group, re-challenged day 21, read day 39. From the text:
STING pathway activation leads to memory T-cell recruitment and ultimately a durable adaptive immune response. To determine whether the anti-tumor effects in this study led to an immune response, the five animals in the high dose STING agonist and Exo STING groups were re-challenged on day 21 by transplantation of 5×10^5 B16F10 cells on the opposite flank. Five additional naïve mice were inoculated with the same tumor cell preparation and treated daily with PBS to ensure cell viability and growth kinetics. By day 39 (18 days post-challenge) all mice in the PBS group were sacrificed.

Structures are written as SMILES.

Turning to `Nc1ncnc2c1ncn2[C@@H]1O[C@@H]2COP(O)(=S)O[C@@H]3C(O)[C@@H](COP(O)(=S)O[C@H]2[C@H]1O)O[C@H]3n1cnc2c(N)ncnc21` (stereo partly shown) [ML RR-S2 CDA], the “animals in which re-challenge tumors failed to grow” value is listed as “four out of 5”.
